Patent US20110182982A1, “LIPOSOME TREATMENT OF VIRAL INFECTIONS” (University of Oxford, priority 2006, published 2011)

Tests used:
CHO cells = assay: Liposome uptake (Rh-PE) and intracellular calcein dequenching; assay type: cell-based, Chinese hamster
Method: The effects of different DNJ compounds on the cellular uptake and intracellular release, when encapsulated inside DCPP liposomes, was determined by diluting compounds in 80-mM calcein and incorporating Rh-PE in liposome membranes as previously described, with the final liposome composition being DOPE:CHEMS:PEG-PE:Rh-PE (DCPP-Rh, 6:4:0.3:0.1) Liposomes encapsulating calcein alone, 10-μM DNJ, 1-mM DNJ, 10-μM NB-DNJ, 1-mM NB-DNJ, 10-μM NN-DNJ, or 1-mM NN-DNJ, were incubated with CHO cells for 45 min before liposomes were removed and cells were washed twice in 1×PBS. Cells were then analyzed in a fluorometer to measure calcein dequenching (λex=490 and λem=520 nm) and rhodamine fluorescence (λex=584 and λem=612 nm). Data represent the mean±S.D. obtained from triplicates of four independent experiments, where mean rhodamine fluorescence values reflect the binding and uptake of liposomes and the mean calcein fluorescence reflects the intracellular dequenching of the dye (i.e. dye released from liposomes into intracellular compartments). Results are expressed as the percent fluorescence measured following incubation with DNJ-containing liposomes as compared to the calcein/PBS-only liposome control (=100% on the x axis).
The calculated ratio of calcein to rhodamine fluorescence is taken as a measure of the amount of aqueous marker released per cell-associated liposome, and represents the efficiency of intracellular delivery.

[1] = pH sensitivity of DCPP liposomes (calcein leakage); assay type: physicochemical; details: 1 mM encapsulated, pH 5.0-7.4, vs calcein only liposomes
Method: DCPP liposomes encapsulating 1-mM DNJ, NB-DNJ, or NN-DNJ in 80-mM calcein buffer were compared with empty (calcein only) liposomes to determine the effects of the alkyl chain of NB-DNJ and NN-DNJ on the pH-sensitivity. 10 μl of calcein-loaded DCPP liposomes (final phospholipid concentration, 5 μM) was added to 2 ml of MES-buffered saline at various pH values ranging from 5.0-7.4, and left to incubate with shaking 15 min at 37° C. Following incubation, calcein fluorescence was measured before and after the addition of Triton to a final concentration of 0.1%. Fluorescence intensities obtained at acidic pH values were corrected for the slight effect of pH on calcein fluorescence. The percentage of calcein release at each pH was calculated using the formula: % leakage=((in−I0)/(I100−I0))×100, where I0 is the fluorescence at neutral pH, In is the corrected intensity at acidic pH before the addition of Triton, and I100 is the total dequenched calcein at neutral pH.

Hepatitis C virus = details: alone or in combination with ribavirin; cited from earlier work
[2] = encapsulated into DCPP liposomes
[3] = 10 μM encapsulated in DCPP liposomes
[4] = 1 mM encapsulated in DCPP liposomes
[5] = encapsulated in DCPP-Rh liposomes

| pH sensitivity / stability of DCPP liposomes [1] | Molecule | Efficiency (calcein/rhodamine, AU) (CHO cells; [3]) [AU] | Efficiency (calcein/rhodamine, AU) (CHO cells; [4]) [AU] | effect on calcein dequenching (intracellular release) (CHO cells; [5]) | patients in whom therapy is effective (Hepatitis C virus) | change of ER delivery of the peptide [2] | cellular uptake of liposomes (CHO cells; [5]) |
| --- | --- | --- | --- | --- | --- | --- | --- |
| no difference in stability | OC[C@H]1NC[C@H](O)[C@@H](O)[C@@H]1O [DNJ, deoxynojirimycin] | 10.4 ± 1.8 | 10.8 ± 2.0 | no effect | – | – | – |
| – | interferon | – | – | – | up to 80% | – | – |
| – | CSCC[C@H](NC(=O)[C@@H](NC(=O)CNC(=O)[C@H](CC(=O)O)NC(=O)[C@H](CCSC)NC(=O)[C@@H](N)Cc1ccc(O)cc1)[C@@H](C)O)C(=O)N[C@@H](CO)C(=O)N[C@@H](CCC(N)=O)C(=O)N[C@H](C(=O)O)C(C)C [YMDGTMSQV] | – | – | – | – | reduces the ER delivery of the peptide by an order of magnitude | – |
| significant decrease in pH sensitivity | CCCCCCCCCN1C[C@H](O)[C@@H](O)[C@H](O)[C@H]1CO [NN-DNJ, N-nonyl deoxynojirimycin] | 4.4 ± 1.3 | 3.2 ± 1.1 | no effect | – | – | increase in cellular uptake |
